Measurements: ChEMBL document CHEMBL1156920, “Structural analogues of schweinfurthin F: probing the steric, electronic, and hydrophobic properties of the D-ring substructure” (Bioorg Med Chem, 2010)

How the values were obtained:
Type in all cases: functional
MCF7 = test: Growth inhibition of human MCF7 cells
SF-539 = test: Growth inhibition of human SF539 cells
SR = test: Growth inhibition of human SR cells
HCT-116 = test: Growth inhibition of human HCT116 cells
SF-295 = test: Growth inhibition of human SF295 cells
NCI-H522 = test: Growth inhibition of human NCI-H522 cells
SK-MEL-5 = test: Growth inhibition of human SK-MEL-5 cells
HOP-62 = test: Growth inhibition of human HOP62 cells
T47D = test: Growth inhibition of human T47D cells
CAKI-1 = test: Growth inhibition of human Caki1 cells
COLO 205 = test: Growth inhibition of human COLO205 cells
SK-MEL-2 = test: Growth inhibition of human SK-MEL-2 cells
NCI-H322M = test: Growth inhibition of human NCI-H322M cells
BT-549 = test: Growth inhibition of human BT549 cells
UACC-62 = test: Growth inhibition of human UACC62 cells
IGROV-1 = test: Growth inhibition of human IGROV1 cells
HCC 2998 = test: Growth inhibition of human HCC2998 cells
NCI-H23 = test: Growth inhibition of human NCI-H23 cells
KM12 = test: Growth inhibition of human KM12 cells
NCI-H226 = test: Growth inhibition of human NCI-H226 cells
DU-145 = test: Growth inhibition of human DU145 cells
A549 = test: Growth inhibition of human A549 cells
Malme-3M = test: Growth inhibition of human MALME-3M cells
UACC-257 = test: Growth inhibition of human UACC257 cells
ACHN = test: Growth inhibition of human ACHN cells
UO-31 = test: Growth inhibition of human UO31 cells
HCT-15 = test: Growth inhibition of human HCT15 cells
U-251 = test: Growth inhibition of human U251 cells
M14 = test: Growth inhibition of human M14 cells
SN12C = test: Growth inhibition of human SN12C cells
786-0 = test: Growth inhibition of human 786-0 cells
RXF 393 = test: Growth inhibition of human RXF393 cells
NCI-H460 = test: Growth inhibition of human NCI-H460 cells
A498 = test: Growth inhibition of human A498 cells
HL-60(TB) = test: Growth inhibition of human HL-60(TB) cells
MOLT-4 = test: Growth inhibition of human MOLT4 cells
K562 = test: Growth inhibition of human K562 cells
SNB-19 = test: Growth inhibition of human SNB19 cells
OVCAR-4 = test: Growth inhibition of human OVCAR4 cells
OVCAR-3 = test: Growth inhibition of human OVCAR-3 cells
SK-OV-3 = test: Growth inhibition of human SKOV3 cells
TK-10 = test: Growth inhibition of human TK10 cells
HT-29 = test: Growth inhibition of human HT-29 cells
[1] = read-out: pLC50 (the source's name) (converted)

Question: What does the source list for `COc1cc(/C=C/c2cc(O)c(CCC(C)C)c(O)c2)cc2c1O[C@]1(C)CC[C@@H](O)C(C)(C)[C@H]1C2`?
Answer: GI50 (MCF7): 0.0427 µM; CC50 (MCF7; [1]): > 100 µM; TGI (MCF7; read-out: pTGI (converted)): 2.4 µM; GI50 (SF-539): 0.0288 µM; LC50 (SF-539): 2.69 µM; TGI (SF-539; read-out: pTGI (converted)): 0.295 µM; GI50 (SR): 0.0891 µM; LC50 (SR): > 100 µM; TGI (SR; read-out: pTGI (converted)): 10.5 µM; GI50 (HCT-116): 0.0468 µM; CC50 (HCT-116; [1]): 47.9 µM; TGI (HCT-116; read-out: pTGI (converted)): 8.13 µM; GI50 (SF-295): 0.0331 µM; LC50 (SF-295): 66.1 µM; TGI (SF-295; read-out: pTGI (converted)): 1.35 µM; GI50 (NCI-H522): 1.32 µM; LC50 (50% lethal concentration) (NCI-H522): > 100 µM; TGI (NCI-H522; read-out: pTGI (converted)): 24 µM; GI50 (SK-MEL-5): 0.0832 µM; LC50 (SK-MEL-5): 4.47 µM; TGI (SK-MEL-5; read-out: pTGI (converted)): 1.51 µM; GI50 (HOP-62): 0.0513 µM; LC50 (HOP-62): 13.8 µM; TGI (HOP-62; read-out: pTGI (converted)): 0.603 µM; GI50 (T47D): 2.04 µM; CC50 (T47D; [1]): > 100 µM; GI50 (CAKI-1): 0.0708 µM; LC50 (CAKI-1): > 100 µM; TGI (CAKI-1; read-out: pTGI (converted)): 17.8 µM; GI50 (COLO 205): 0.891 µM; LC50 (COLO 205): > 100 µM; TGI (COLO 205; read-out: pTGI (converted)): 12.3 µM; GI50 (SK-MEL-2): 4.47 µM; TGI (SK-MEL-2; read-out: pTGI (converted)): 33.1 µM; GI50 (NCI-H322M): 0.933 µM; TGI (NCI-H322M; read-out: pTGI (converted)): 28.8 µM; GI50 (BT-549): 0.363 µM; CC50 (BT-549; [1]): > 100 µM; TGI (BT-549; read-out: pTGI (converted)): 28.8 µM; GI50 (UACC-62): 0.195 µM; CC50 (UACC-62; [1]): 32.4 µM; TGI (UACC-62; read-out: pTGI (converted)): 7.08 µM; GI50 (IGROV-1): 0.513 µM; LC50 (IGROV-1): > 100 µM; TGI (IGROV-1; read-out: pTGI (converted)): 46.8 µM; GI50 (HCC 2998): 0.794 µM; LC50 (HCC 2998): 38 µM; TGI (HCC 2998; read-out: pTGI (converted)): 10.5 µM; GI50 (NCI-H23): 1.29 µM; LC50 (NCI-H23): 81.3 µM; TGI (NCI-H23; read-out: pTGI (converted)): 19.5 µM; GI50 (KM12): 0.275 µM; LC50 (KM12): 28.8 µM; TGI (KM12; read-out: pTGI (converted)): 5.25 µM; GI50 (NCI-H226): 0.692 µM; LC50 (NCI-H226): > 100 µM; TGI (NCI-H226; read-out: pTGI (converted)): 3.55 µM; GI50 (DU-145): 0.24 µM; LC50 (DU-145): 37.2 µM; TGI (DU-145; read-out: pTGI (converted)): 14.1 µM; GI50 (A549): 0.166 µM; LC50 (50% lethal concentration) (A549): > 100 µM; TGI (A549; read-out: pTGI (converted)): 17.4 µM; GI50 (Malme-3M): 1.41 µM; LC50 (Malme-3M): 63.1 µM; TGI (Malme-3M; read-out: pTGI (converted)): 12.3 µM; GI50 (UACC-257): 3.39 µM; LC50 (UACC-257): 64.6 µM; TGI (UACC-257; read-out: pTGI (converted)): 21.9 µM; GI50 (ACHN): 0.309 µM; CC50 (ACHN; [1]): 43.7 µM; TGI (ACHN; read-out: pTGI (converted)): 15.8 µM; GI50 (UO-31): 0.0468 µM; CC50 (UO-31; [1]): 74.1 µM; TGI (UO-31; read-out: pTGI (converted)): 2.4 µM; GI50 (HCT-15): 0.182 µM; LC50 (HCT-15): 26.3 µM; TGI (HCT-15; read-out: pTGI (converted)): 2.88 µM; GI50 (U-251): 0.0631 µM; LC50 (U-251): 37.2 µM; TGI (U-251; read-out: pTGI (converted)): 12.9 µM; GI50 (M14): 0.245 µM; CC50 (M14; [1]): 30.9 µM; TGI (M14; read-out: pTGI (converted)): 0.24 µM; GI50 (SN12C): 0.741 µM; LC50 (SN12C): > 100 µM; TGI (SN12C; read-out: pTGI (converted)): 36.3 µM; GI50 (786-0): 0.0102 µM; LC50 (786-0): 2.88 µM; TGI (786-0; read-out: pTGI (converted)): 0.0537 µM; GI50 (RXF 393): 0.01 µM; CC50 (RXF 393; [1]): 8.32 µM; TGI (RXF 393; read-out: pTGI (converted)): 0.0891 µM; GI50 (NCI-H460): 0.0661 µM; LC50 (NCI-H460): 51.3 µM; TGI (NCI-H460; read-out: pTGI (converted)): 1.78 µM; GI50 (A498): 0.158 µM; LC50 (A498): 36.3 µM; TGI (A498; read-out: pTGI (converted)): 6.31 µM; GI50 (HL-60(TB)): 0.251 µM; CC50 (HL-60(TB); [1]): > 100 µM; TGI (HL-60(TB); read-out: pTGI (converted)): 38.9 µM; GI50 (MOLT-4): 0.0457 µM; LC50 (MOLT-4): > 100 µM; TGI (MOLT-4; read-out: pTGI (converted)): 18.6 µM; GI50 (K562): 1.17 µM; CC50 (K562; [1]): > 100 µM; TGI (K562; read-out: pTGI (converted)): > 100 µM; GI50 (SNB-19): 0.372 µM; GI50 (OVCAR-4): 1.41 µM; CC50 (OVCAR-4; [1]): > 100 µM; TGI (OVCAR-4; read-out: pTGI (converted)): 38 µM; GI50 (OVCAR-3): 0.417 µM; LC50 (50% lethal concentration) (OVCAR-3): 56.2 µM; TGI (OVCAR-3; read-out: pTGI (converted)): 14.1 µM; GI50 (SK-OV-3): 11.5 µM; LC50 (SK-OV-3): > 100 µM; TGI (SK-OV-3; read-out: pTGI (converted)): 97.7 µM; GI50 (TK-10): 6.31 µM; LC50 (TK-10): 74.1 µM; TGI (TK-10; read-out: pTGI (converted)): 25.1 µM; GI50 (HT-29): 0.813 µM; LC50 (50% lethal concentration) (HT-29): 97.7 µM; TGI (HT-29; read-out: pTGI (converted)): 4.47 µM
